The series can be described thus: xn = mol fraction of the nth substance listed. As to conditions: 101 kPa.

A word on the viscosity: it is the resistance of a fluid to flow. The low end stands for a thin fluid, the high end for a thick fluid.

On to `CCCCCCCCCCCCCC[n+]1ccn(C)c1.O=S(=O)([N-]S(=O)(=O)C(F)(F)F)C(F)(F)F` + CCCCCCCCCCCCCCCCn1cc[n+](C)c1.O=S(=O)([N-]S(=O)(=O)C(F)(F)F)C(F)(F)F, for which the viscosity runs as follows: (313 K, x1 = 0.6709) 102.6 mPa·s; (323 K, x1 = 0.6709) 66.3 mPa·s; (333 K, x1 = 0.6709) 45.2 mPa·s; (343 K, x1 = 0.6709) 32 mPa·s; (353 K, x1 = 0.6709) 23.4 mPa·s.

`CCCCCCCCCCCCCCCCCC[n+]1ccn(C)c1.O=S(=O)([N-]S(=O)(=O)C(F)(F)F)C(F)(F)F` + CCCCCCCCCCCCCCCCn1cc[n+](C)c1.O=S(=O)([N-]S(=O)(=O)C(F)(F)F)C(F)(F)F: the viscosity (333 K, x2 = 0.621) stood at 59.3 mPa·s; the viscosity (343 K, x2 = 0.621) amounted to 41.1 mPa·s; the viscosity (353 K, x2 = 0.621) turned out to be 29.6 mPa·s.

As to `CCCCCCCCCCCCCCCCCC[n+]1ccn(C)c1.O=S(=O)([N-]S(=O)(=O)C(F)(F)F)C(F)(F)F` + CCCCCCCCCCCCCC[n+]1ccn(C)c1.O=S(=O)([N-]S(=O)(=O)C(F)(F)F)C(F)(F)F, the viscosity reads like this: (333 K, x2 = 0.7675) 49.6 mPa·s; (343 K, x2 = 0.7675) 34.8 mPa·s; (353 K, x2 = 0.7675) 25.4 mPa·s.

For the origin of these results see a compilation of properties of binary mixtures (doi:10.1016/j.molliq.2021.116805).
